# Measurements as given in paper PMC2267855, “Site-directed mutagenesis of Arginine282 suggests how protons and peptides are co-transported by rabbit PepT1” (The International Journal of Biochemistry & Cell Biology, 2008).
# Substitutions are numbered along the chain they refer to.
# Columns and labels:
# R282D-PepT1 = target: T1, R282D-PepT1 (Oryctolagus cuniculus, UniProt P36836, R282D); experiment: Apparent charge:peptide stoichiometry (two-electrode voltage clamp current / radiolabelled uptake), R282D-PepT1; type: cell-based, rabbit; conditions: R282D-PepT1, pHout 5.5, resting membrane potential
# T1 construct: expressed in transfected cells; host or cells: Xenopus laevis oocytes injected with cRNA
# T1 sequence (P36836 1-707 R282D): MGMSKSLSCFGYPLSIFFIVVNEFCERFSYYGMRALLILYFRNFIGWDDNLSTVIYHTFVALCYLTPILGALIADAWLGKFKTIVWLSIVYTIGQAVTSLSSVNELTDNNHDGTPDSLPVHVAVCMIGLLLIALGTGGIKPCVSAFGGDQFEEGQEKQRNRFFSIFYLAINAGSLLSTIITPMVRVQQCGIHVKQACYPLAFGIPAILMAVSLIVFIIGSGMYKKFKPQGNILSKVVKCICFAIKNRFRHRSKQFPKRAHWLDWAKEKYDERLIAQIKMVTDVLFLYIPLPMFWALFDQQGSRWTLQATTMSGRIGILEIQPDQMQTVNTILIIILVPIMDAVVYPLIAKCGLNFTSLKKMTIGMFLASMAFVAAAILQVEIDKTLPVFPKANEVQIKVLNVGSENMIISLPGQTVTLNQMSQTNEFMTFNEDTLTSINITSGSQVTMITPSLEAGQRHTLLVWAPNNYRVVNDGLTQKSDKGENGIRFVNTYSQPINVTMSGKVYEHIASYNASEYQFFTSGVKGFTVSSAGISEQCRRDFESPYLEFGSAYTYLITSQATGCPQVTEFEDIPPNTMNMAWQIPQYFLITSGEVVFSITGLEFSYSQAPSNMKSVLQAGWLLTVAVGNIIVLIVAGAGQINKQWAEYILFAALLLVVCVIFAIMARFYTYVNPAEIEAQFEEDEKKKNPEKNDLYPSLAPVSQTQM
# Description: Measurements of membrane potential were made by impaling oocytes with a single glass microelectrode (Intra 767 amplifier, WPI, Stevenage, Hertfordshire, UK) perfused in uptake medium (as above) with or without 0.4 μM D-Phe-L-Gln (synthesised in house), 0.6 mM Gly-L-Gln (Sigma, Poole, UK) or 10 mM 4-aminobenzoic acid (4-AMBA, Sigma). Two-electrode voltage clamp (TEVC) was performed by placing oocytes in a 0.1 ml recording chamber and perfusing with uptake solution (pH 5.5 or 7.4) at a rate of 15 ml/min. Oocytes were impaled by two agarose-cushioned microelectrodes filled with 3 M KCl (0.5–2.0 MΩ) and voltage-clamped at −60 mV using a Geneclamp 500B amplifier and PCLAMP 8.1 software (Axon Instruments, CA, USA). The holding potential was stepped from −60 mV over the range of −150 to +50 mV in 10 mV steps, each pulse lasting 100 ms, and returning to −60 mV in between test voltage pulses. Typically traces were filtered at 1 kHz during recording and digitized at 0.5–5 kHz using the DigiData 1200 interface (Axon Instruments, CA, USA). All experiments were carried out at room temperature.
# In order to calculate the apparent charge:substrate stoichiometry, the peptide induced current that was measured by two-electrode voltage clamp at the oocyte resting membrane potential was divided by the radiolabelled dipeptide uptake in oocytes from the same preparation. […]
# R282E-PepT1 = target: T2, R282E-PepT1 (Oryctolagus cuniculus, UniProt P36836, R282E); experiment: Accumulation of [3H]-D-Phe-L-Gln above the extracellular concentration by oocytes expressing R282E-PepT1; type: cell-based, rabbit; conditions: R282E-PepT1, pHout 7.4, 24 h incubation
# T2 construct: expressed in transfected cells; host or cells: Xenopus laevis oocytes injected with cRNA
# T2 sequence (P36836 1-707 R282E): T1 sequence (P36836 1-707 R282D) with D282E
# Description: Zero-trans uptake of [^3H]-D-Phe-L-Gln (17.4 Ci/mmole, custom synthesised, Cambridge Research Biochemicals, Stockton-on-Tees, UK) was performed as previously described ([Meredith, 2004]). Briefly, 5 oocytes were incubated in 100 μl of uptake medium (95 mM NaCl, 2 mM KCl, 1 mM CaCl2, 0.42 mM MgCl2, 10 mM Tris/Hepes pH 7.4 or Tris/Mes pH 5.5) with tracer (0.4 μM) [^3H]-D-Phe-L-Gln. After incubation, the oocytes were washed sequentially five times in 1 ml of ice-cold 120 mM NaCl solution, lysed individually with 100 μl 2% (w/v) SDS and liquid scintillation counted. As a control non-injected oocytes were also incubated in uptake medium with [^3H]-D-Phe-L-Gln as above.
smiles,measurement,setting,value
NC(=O)CC[C@H](NC(=O)[C@H](N)Cc1ccccc1)C(=O)O [D-Phe-L-Gln],"apparent stoichiometry (charge:peptide), normalised to wild-type 1:1",R282D-PepT1,5
same,accumulation above extracellular concentration,R282E-PepT1,2.3 ± 0.4 -fold
